From US20160122386A1, “V1A RECEPTOR AGONISTS” (FERRING B.V., priority 2014, published 2016)
Starred links: 1 amine or outer side, 2 acyl side, 3 side chain; linkers in the order of their positions; H or OH if unused. Positions of bridges follow the written chain, without caps; N, C: chain ends. Non-standard residues stand in square brackets, D forms with d. Residues, ends and D or L forms follow the SMILES beside them. Chains are numbered I, II in the order given. *: point of attachment. d(isoGln) = NC(=O)[C@@H](CCC(=O)[*:2])N[*:1]; X2 = N=C(N)N[C@@H](CCCCN[*:1])C(=O)[*:2]; isoGln = NC(=O)[C@H](CCC(=O)[*:2])N[*:1]; d(εLys) = N[C@H](CCCCN[*:1])C(=O)[*:2]; X1 = N[C@@H](CCC(=O)[*:2])C(=O)[*:1]; εLys = N[C@@H](CCCCN[*:1])C(=O)[*:2]; X4 = N[C@H](CCC(=O)[*:2])C(=O)[*:1]; Aad = N[C@@H](CCCC(=O)O)C(=O)O; Cit = NC(=O)NCCC[C@H](N)C(=O)O; Dab = NCC[C@H](N)C(=O)O; PhAc = O=C(Cc1ccccc1)*

Molecular target: T1, human V1aR (Homo sapiens, UniProt P37288)
T1 construct: expressed in transfected cells
Test: Agonist activity at vasopressin V1a receptors, cell-based FLIPR calcium assay
Conditions: for Emax: read-out: Efficacy Avg. (%)
Method in brief: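 HEK Flp-In cells stably expressing human V1aR were loaded with Calcium 4 dye plus 2.5 mM probenecid for 1 h at 37 °C, then given half-log compound concentrations (final 0.1% DMSO) on FLIPR Tetra.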

T1 sequence (P37288 whole entry): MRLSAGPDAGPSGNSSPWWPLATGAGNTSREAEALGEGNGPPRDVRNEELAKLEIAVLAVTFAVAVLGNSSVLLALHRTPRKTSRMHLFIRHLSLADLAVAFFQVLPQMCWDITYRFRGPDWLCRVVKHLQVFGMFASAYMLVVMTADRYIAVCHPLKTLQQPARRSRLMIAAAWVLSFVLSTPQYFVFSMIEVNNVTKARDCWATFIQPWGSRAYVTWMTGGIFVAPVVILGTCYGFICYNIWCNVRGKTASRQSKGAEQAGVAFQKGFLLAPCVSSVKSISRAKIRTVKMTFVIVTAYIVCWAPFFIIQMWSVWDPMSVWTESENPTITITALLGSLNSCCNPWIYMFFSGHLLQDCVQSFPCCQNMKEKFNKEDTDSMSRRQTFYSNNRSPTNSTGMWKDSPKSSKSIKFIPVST

SMILES | EC50 | Emax
CC[C@H](C)[C@@H]1NC(=O)[C@H](Cc2ccccc2)NC(=O)[C@@H](N)CSSC[C@@H](C(=O)N2CCC[C@H]2C(=O)N[C@@H](CCNC(=O)[C@@H](N)CCCCNC(=O)CC[C@@H](NC(=O)[C@H](CCCNC(=N)N)NC(=O)[C@@H]2CCCN2C(=O)[C@H](C)NC(=O)[C@H](CC(N)=O)NC(=O)[C@H](CCC(N)=O)NC(=O)[C@H](Cc2ccccc2)NC(=O)[C@@H](Cc2ccc(OC)cc2)NC(=O)Cc2ccccc2)C(N)=O)C(=O)NCC(N)=O)NC(=O)[C@H](CC(N)=O)NC(=O)[C@H](CCC(N)=O)NC1=O [Compound 54] (I: H-CFIQNCP[Dab]G-NH2 / II: PhAc-[dY](Me)FQNAPR[d(isoGln)][εLys]; disulfide I:1-I:6; amide I:8-II:C) | 1.4 nM | 51%
CC[C@H](C)[C@@H]1NC(=O)[C@H](Cc2ccccc2)NC(=O)[C@@H](N)CSSC[C@@H](C(=O)N2CCC[C@H]2C(=O)N[C@@H](CCNC(=O)[C@H](N)CCCCNC(=O)CC[C@@H](NC(=O)[C@H](CCCNC(=N)N)NC(=O)[C@@H]2CCCN2C(=O)[C@H](CCCNC(N)=O)NC(=O)[C@H](CC(N)=O)NC(=O)[C@H](CCC(N)=O)NC(=O)[C@H](Cc2ccccc2)NC(=O)[C@@H](Cc2ccc(OC)cc2)NC(=O)Cc2ccccc2)C(N)=O)C(=O)NCC(N)=O)NC(=O)[C@H](CC(N)=O)NC(=O)[C@H](CCC(N)=O)NC1=O [Compound 55] (I: H-CFIQNCP[Dab]G-NH2 / II: PhAc-[dY](Me)FQN[Cit]PR[d(isoGln)][d(εLys)]; disulfide I:1-I:6; amide I:8-II:C) |  | 56%
CC[C@H](C)[C@@H]1NC(=O)[C@H](Cc2ccccc2)NC(=O)[C@@H](O)CSSC[C@@H](C(=O)N2CCC[C@H]2C(=O)N[C@@H](CCNC(=O)[C@@H](N)CCCCNC(=O)CC[C@H](NC(=O)[C@H](CCCNC(=N)N)NC(=O)[C@@H]2CCCN2C(=O)[C@H](C)NC(=O)[C@H](CC(N)=O)NC(=O)[C@H](CCC(N)=O)NC(=O)[C@H](Cc2ccccc2)NC(=O)[C@@H](Cc2ccc(OC)cc2)NC(=O)Cc2ccccc2)C(N)=O)C(=O)NCC(N)=O)NC(=O)[C@H](CC(N)=O)NC(=O)[C@H](CCC(N)=O)NC1=O [Compound 30] | 1.1 nM | 50%
CC[C@H](C)[C@@H]1NC(=O)[C@H](Cc2ccccc2)NC(=O)[C@@H](N)CSSC[C@@H](C(=O)N2CCC[C@H]2C(=O)N[C@@H](CCNC(=O)[C@H](N)CCC(=O)NCCCC[C@H](NC(=O)[C@H](CCCNC(=N)N)NC(=O)[C@@H]2CCCN2C(=O)[C@H](C)NC(=O)[C@H](CC(N)=O)NC(=O)[C@H](CCC(N)=O)NC(=O)[C@H](Cc2ccccc2)NC(=O)[C@@H](Cc2ccc(OC)cc2)NC(=O)Cc2ccccc2)C(N)=O)C(=O)NCC(N)=O)NC(=O)[C@H](CC(N)=O)NC(=O)[C@H](CCCC(N)=O)NC1=O [Compound 65] (I: H-CFI[Aad](NH2)NCP[Dab]G-NH2 / II: PhAc-[dY](Me)FQNAPRK-NH2; disulfide I:1-I:6; linker I:8-II:8 via X4) | 4.5 nM | 31%
CC[C@H](C)[C@@H]1NC(=O)[C@H](Cc2ccccc2)NC(=O)[C@@H](N)CSSC[C@@H](C(=O)N2CCC[C@H]2C(=O)N[C@@H](CCCNCCCCCNC(=O)CCNC(=O)CC[C@H](NC(=O)[C@H](CCCNC(=N)N)NC(=O)[C@@H]2CCCN2C(=O)[C@H](C)NC(=O)[C@H](CC(N)=O)NC(=O)[C@H](CCC(N)=O)NC(=O)[C@H](Cc2ccccc2)NC(=O)[C@@H](Cc2ccc(OC)cc2)NC(=O)Cc2ccccc2)C(N)=O)C(=O)NCC(N)=O)NC(=O)[C@H](CC(N)=O)NC(=O)[C@H](CCC(N)=O)NC1=O [Compound 20] | 2.7 nM | 42%
CC[C@H](C)[C@@H]1NC(=O)[C@H](Cc2ccccc2)NC(=O)[C@@H](N)CSSC[C@@H](C(=O)N2CCC[C@H]2C(=O)N[C@@H](CCCNCCCCCNC(=O)CC[C@H](NC(=O)[C@H](CCCNC(=N)N)NC(=O)[C@@H]2CCCN2C(=O)[C@H](CO)NC(=O)[C@H](CC(N)=O)NC(=O)[C@H](CCC(N)=O)NC(=O)[C@H](Cc2ccccc2)NC(=O)[C@@H](Cc2ccc(OC)cc2)NC(=O)Cc2ccccc2)C(N)=O)C(=O)NCC(N)=O)NC(=O)[C@H](CC(N)=O)NC(=O)[C@H](CCC(N)=O)NC1=O [Compound 11] | 2.2 nM | 51%
CC[C@H](C)[C@@H]1NC(=O)[C@H](Cc2ccccc2)NC(=O)[C@@H](N)CSSC[C@@H](C(=O)N2CCC[C@H]2C(=O)N[C@@H](CCCNCCCCCNC(=O)CC[C@H](NC(=O)[C@H](CCCNC(=N)N)NC(=O)[C@@H]2CCCN2C(=O)[C@H](CCCNC(N)=O)NC(=O)[C@H](CC(N)=O)NC(=O)[C@H](CCC(N)=O)NC(=O)[C@H](Cc2ccccc2)NC(=O)[C@@H](Cc2ccc(OC)cc2)NC(=O)Cc2ccccc2)C(N)=O)C(=O)NCC(N)=O)NC(=O)[C@H](CC(N)=O)NC(=O)[C@H](CCC(N)=O)NC1=O [Compound 15] | 2.3 nM | 44%
CC[C@H](C)[C@@H]1NC(=O)[C@H](Cc2ccccc2)NC(=O)[C@@H](N)CSSC[C@@H](C(=O)N2CCC[C@H]2C(=O)N[C@@H](CCNC(=O)[C@H](CCCCNC(=O)CC[C@H](NC(=O)[C@H](CCCNC(=N)N)NC(=O)[C@@H]2CCCN2C(=O)[C@H](C)NC(=O)[C@H](CC(N)=O)NC(=O)[C@H](CCC(N)=O)NC(=O)[C@H](Cc2ccccc2)NC(=O)[C@@H](Cc2ccc(OC)cc2)NC(=O)Cc2ccccc2)C(N)=O)NC(=N)N)C(=O)NCC(N)=O)NC(=O)[C@H](CC(N)=O)NC(=O)[C@H](CCC(N)=O)NC1=O [Compound 29] (I: H-CFIQNCP[Dab]G-NH2 / II: PhAc-[dY](Me)FQNAPR[isoGln][X2]; disulfide I:1-I:6 (inferred); amide I:8-II:C (inferred)) | 1.2 nM | 39%
CC[C@H](C)[C@@H]1NC(=O)[C@H](Cc2ccccc2)NC(=O)[C@@H](N)CSSC[C@@H](C(=O)N2CCC[C@H]2C(=O)N[C@@H](CCNC(=O)[C@@H](N)CCC(=O)NCCCC[C@H](NC(=O)[C@H](CCCNC(=N)N)NC(=O)[C@@H]2CCCN2C(=O)[C@H](C)NC(=O)[C@H](CC(N)=O)NC(=O)[C@H](CCC(N)=O)NC(=O)[C@H](Cc2ccccc2)NC(=O)[C@@H](Cc2ccc(OC)cc2)NC(=O)Cc2ccccc2)C(N)=O)C(=O)NCC(N)=O)NC(=O)[C@H](CC(N)=O)NC(=O)[C@H](CC(N)=O)NC1=O [Compound 63] (I: H-CFINNCP[Dab]G-NH2 / II: PhAc-[dY](Me)FQNAPRK-NH2; disulfide I:1-I:6; linker I:8-II:8 via X1) | 1.1 nM | 36%
